Measured values: patent US20230278983A1, “INDOLE DERIVATIVES AND USES THEREOF FOR TREATING A CANCER” (Universite Claude Bernard Lyon 1, priority 2020, published 2023)

Tests used:
[1] = system: 786-O and RPTEC cells; assay: Immunoblotting of CK2-dependent substrate phosphorylation and apoptosis markers; type: cell-based; conditions: 48 hours or 24 hours, increasing concentrations
[2] = system: 786-O cells; assay: Cell death, IncuCyte propidium iodide live-cell imaging; type: cell-based, human
[3] = system: MCF10-A cells (WT and CK2β-depleted); assay: as above; type: cell-based; conditions: n=5
[4] = system: A549 and MDA-MB231 cells; assay: Immunoblotting of CK2-dependent substrate phosphorylation and apoptosis markers; type: cell-based, human; conditions: A549 24 hours, MDA-MB231 48 hours
[5] = system: RPTEC cells; assay: Cell death, IncuCyte propidium iodide live-cell imaging; type: cell-based; conditions: 48 hours, 1 μM AB668 with 5 μM tariquidar (n=5)
[6] = system: MDA-MB231 cells; assay: as above; type: cell-based, human; conditions: 48 hours, increasing concentrations

CC(C)COC(=O)c1[nH]c2ccc(F)cc2c1-c1cn(CC2CCN(CCNS(=O)(=O)c3ccc(CC(C)C)cc3)CC2)nn1 [AB668, Isobutyl 5-fluoro-3-(1-((1-(2-((4-isobutylphenyl)sulfonamido)ethyl)piperidin-4-yl)methyl)-1H-1,2,3-triazol-4-yl)-1H-indole-2-carboxylate]
CK2-dependent substrate phosphorylation and apoptosis (western blot) [1]: inhibit CK2-dependent substrate phosphorylation in cells and induce apoptosis | Cell death induction in RCC lines compared to normal cells ([2]; 24 hours, 786-O (VHL+/−) at 1 μM, RPTEC at 10 μM (n=5)): much more efficient in inducing cell death in RCC lines | Sensitivity to compound-mediated cell death, 786-O versus RPTEC or HEK 293 ([2]; 36 hours, increasing concentrations (n=4 to 6)): much more sensitive | Cell death induction compared to CX-4945 and sunitinib ([2]; at 5 and 2.5 μM): much more efficient in inducing cell death | Cell death in CK2β-depleted versus WT cells [3]: more pronounced in CK2β-depleted cells than in WT cells | CK2-dependent substrate phosphorylation and apoptosis (western blot) [4]: inhibit CK2-dependent substrate phosphorylation and induce apoptosis in different cancer cell lines | Effect of P-glycoprotein inhibitor tariquidar on compound effect [5]: has not changed the effect of AB668 | Sensitivity to compound-mediated cell death, MDA-MB231 versus normal MCF10A [6]: much more sensitive
